From paper PMC7496091, “Small‐Molecule Inhibitors Targeting Sterol 14α‐Demethylase (CYP51): Synthesis, Molecular Modelling and Evaluation Against Candida albicans” (Chemmedchem, 2020)
Like-named read-outs stand apart in the source and are kept apart here.

Legend:
[1] = tested on: C. albicans CA14; assay: MIC, CLSI M27-S4 broth dilution, strain CA14; format: cell-based, Candida albicans; settings: Candida albicans, CA14, 48 hours
Protocol: Susceptibility testing of C. albicans strains. […] Stock solutions of each agent were prepared in DMSO. […] The final testing concentrations for all compounds ranged from 0.03–16 μg mL^−1.

[2] = target: T1, CaCYP51 (Candida albicans, UniProt P10613); assay: biochemical; format: binding
T1 construct: made in house; host or cells: Escherichia coli
T1 sequence (P10613 whole entry): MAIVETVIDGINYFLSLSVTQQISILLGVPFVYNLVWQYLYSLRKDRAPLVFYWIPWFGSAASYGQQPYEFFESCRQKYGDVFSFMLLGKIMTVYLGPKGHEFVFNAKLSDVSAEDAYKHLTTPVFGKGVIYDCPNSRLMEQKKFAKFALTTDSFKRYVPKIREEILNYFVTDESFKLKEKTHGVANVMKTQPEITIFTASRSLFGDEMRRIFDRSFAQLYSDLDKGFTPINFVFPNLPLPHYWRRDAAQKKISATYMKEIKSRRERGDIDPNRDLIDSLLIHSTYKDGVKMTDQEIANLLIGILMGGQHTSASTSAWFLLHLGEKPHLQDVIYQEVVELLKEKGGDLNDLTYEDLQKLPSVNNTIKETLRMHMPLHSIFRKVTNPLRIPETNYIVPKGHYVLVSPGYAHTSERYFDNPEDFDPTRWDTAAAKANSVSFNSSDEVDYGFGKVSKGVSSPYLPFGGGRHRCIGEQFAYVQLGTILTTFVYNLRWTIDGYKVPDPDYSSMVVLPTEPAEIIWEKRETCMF
Description: […]. There were no signs of compound insolubility (visible or rising background absorbance) during the ligand titrations. […] […].
The rearranged Morrison equation34 gave the best fit to the ligand saturation curves against CaCYP51 (Figure 5) indicating the selected compounds bound tightly to the purified CaCYP51 protein in free solution. Likewise the rearranged Morrison equation34 gave the best fit for binding 5 d and 5 f to Δ60HsCYP51, thus indicating tight binding in free solution (Figure 5). […].
Recombinant CYP51 protein studies. […] All azole ligand binding determinations were performed in triplicate, except the binding of compound 12 c with Δ60HsCYP51 which was performed six times. CYP51 protein samples were diluted with 0.1 M Tris⋅HCl (pH 8.1) and 25 % (w/v) glycerol to the required concentration.
(§1) Dissociation constant (K d). The K d for each CYP51‐azole complex was determined by non‐linear regression (Levenberg‐Marquardt algorithm) using a rearrangement of the Morrison equation for tight ligand binding.34 Where ligand binding was weaker, the Michaelis‐Menten equation was used to fit the data (Figure S5). K d values were determined for each of the three replicate titrations per azole compound and then mean K d values and standard deviations calculated.

[3] = tested on: C. albicans SC5314; assay: Sterol profile analysis by GC-MS, strain SC5314; format: cell-based, Candida albicans; settings: SC5314, % of total sterols, half the MIC (fluconazole 0.06, 5 d 0.06, 5 f 0.015, 12 c 0.5 μg/mL), 18 h
Protocol: (§2) Sterols were then extracted and analysed by GC‐MS and sterol profiles (% of the total sterol extracted) were determined (Table 6).
(§3) Sterol profile analysis of C. albicans strains. […] Cells were pelleted and washed with ddH2O and non‐saponifiable lipids were extracted using methanolic KOH as reported previously.41 Samples were dried in a vacuum centrifuge and were derivatised by the addition of 100 μL 90 % BSTFA / 10 % TMCS (Sigma), 200 μL anhydrous pyridine (Sigma) and heating for 2 h at 80 °C. TMS‐derivatised sterols were analysed and identified by using GC/MS (Thermo 1300 GC coupled to a Thermo ISQ mass spectrometer, Thermo Scientific) with reference to retention times and fragmentation spectra for known standards. GC/MS data files were analysed using Xcalibur software (Thermo Scientific) to determine sterol profiles for all isolates and to integrate peak areas.

[4] = tested on: C. albicans SC5314; assay: MIC, CLSI M27-S4 broth dilution, strain SC5314; format: cell-based, Candida albicans; settings: Candida albicans, SC5314, 48 hours
Protocol: The susceptibilities of the SC5314 and CA14C. albicans (azole sensitive) strains to all novel azole derivatives (5, 7 and 12) were determined (Table 3) using the standardized CLSI M27‐S4 broth dilution method.28
Susceptibility testing of C. albicans strains. […] Stock solutions of each agent were prepared in DMSO. Further dilutions were made in RPMI‐1640, and the final concentration of DMSO was 1 % (v/v). The final testing concentrations for all compounds ranged from 0.03–16 μg mL^−1.

[5] = target: T2, Δ60HsCYP51 (Homo sapiens, UniProt Q16850); assay: CYP51 reconstitution assay (IC50), Δ60HsCYP51; format: biochemical
T2 sequence (Q16850 61-509, stated change not applied): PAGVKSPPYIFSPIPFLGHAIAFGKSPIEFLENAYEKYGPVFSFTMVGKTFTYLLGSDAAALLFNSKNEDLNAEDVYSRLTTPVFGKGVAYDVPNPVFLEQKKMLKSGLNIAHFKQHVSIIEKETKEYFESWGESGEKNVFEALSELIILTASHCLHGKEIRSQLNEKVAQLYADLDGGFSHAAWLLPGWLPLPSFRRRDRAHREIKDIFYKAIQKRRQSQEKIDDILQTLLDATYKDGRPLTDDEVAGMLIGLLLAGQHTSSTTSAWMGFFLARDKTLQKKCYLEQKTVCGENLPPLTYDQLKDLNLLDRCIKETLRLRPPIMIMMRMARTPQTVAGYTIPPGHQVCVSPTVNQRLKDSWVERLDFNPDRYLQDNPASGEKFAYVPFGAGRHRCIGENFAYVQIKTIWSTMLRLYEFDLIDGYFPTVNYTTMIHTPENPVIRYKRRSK
T2 sequence (P16435 2-677, stated change not applied, further chain): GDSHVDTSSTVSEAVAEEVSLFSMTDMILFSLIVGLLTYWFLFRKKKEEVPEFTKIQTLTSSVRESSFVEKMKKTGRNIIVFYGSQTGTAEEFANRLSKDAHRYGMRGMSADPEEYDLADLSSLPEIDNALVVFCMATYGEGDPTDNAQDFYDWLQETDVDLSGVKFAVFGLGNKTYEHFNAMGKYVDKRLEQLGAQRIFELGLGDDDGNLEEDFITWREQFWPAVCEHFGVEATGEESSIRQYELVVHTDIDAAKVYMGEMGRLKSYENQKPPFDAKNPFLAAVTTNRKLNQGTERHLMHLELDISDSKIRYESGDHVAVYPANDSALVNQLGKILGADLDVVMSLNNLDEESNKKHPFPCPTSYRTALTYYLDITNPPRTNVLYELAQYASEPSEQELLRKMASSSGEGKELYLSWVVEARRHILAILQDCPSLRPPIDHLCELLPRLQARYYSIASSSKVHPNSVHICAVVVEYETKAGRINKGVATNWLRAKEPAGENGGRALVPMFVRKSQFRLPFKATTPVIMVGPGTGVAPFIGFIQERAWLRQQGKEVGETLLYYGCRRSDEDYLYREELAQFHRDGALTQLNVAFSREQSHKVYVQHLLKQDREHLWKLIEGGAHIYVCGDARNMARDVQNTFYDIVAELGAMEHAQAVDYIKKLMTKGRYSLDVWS
Protocol: CYP51 reconstitution assays. […] Azoles were introduced using 2.5 μL of stock solutions in DMSO. […] Each IC50 experiment was performed in duplicate.

[6] = tested on: C. albicans CA14; assay: Sterol profile analysis by GC-MS, strain CA14; format: cell-based, Candida albicans; settings: CA14, % of total sterols, half the MIC (fluconazole 0.06, 5 d 0.06, 5 f 0.015, 12 c 0.5 μg/mL), 18 h
Protocol: as §2, §3

[7] = target: T1, CaCYP51; assay: biochemical
Protocol: […]. […] […]. CYP51 reconstitution assays. IC50 values were determined for individual azole compounds18, 30 using lanosterol as substrate. Azoles were introduced using 2.5 μL of stock solutions in DMSO. CaCYP51 assays contained 1 μM CaCYP51 and 2 μM Homo sapiens cytochrome P450 reductase (HsCPR – UniProtKB accession number P16435) and were incubated for 20 min at 37 °C. HsCYP51 assays contained 0.25 μM Δ60HsCYP51 and 1 μM HsCPR and were incubated for 10 min at 37 °C. Each IC50 experiment was performed in duplicate.

[8] = target: T2, Δ60HsCYP51; assay: Azole ligand binding titration (type II difference spectra, Kd), Δ60HsCYP51; settings: for Type of difference binding spectra with Δ60HsCYP51: titration with Δ60HsCYP51
Protocol: Recombinant CYP51 protein studies.
as §1

[9] = target: T2, Δ60HsCYP51; settings: cited from earlier work; for IC50: read-out: IC50 Δ60HsCYP51 (Hs), 0.4 μM Δ60HsCYP51 ref 21
[10] = target: T1, CaCYP51; settings: 1 μM CaCYP51 ref 21; read-out: IC50 CaCYP51 (Ca) (converted); cited from earlier work
[11] = target: T2, Δ60HsCYP51; settings: read-out: K d Δ60HsCYP51 (Hs); cited from earlier work
[12] = 3 μM native CaCYP51, mean of three replicates ± SD, read-out: K d CaCYP51
[13] = 0.25 μM Δ60HsCYP51, lanosterol as substrate, read-out: IC50 Δ60HsCYP51 (Hs)
[14] = 1 μM CaCYP51, lanosterol as substrate, curve-fitted, read-out: CaCYP51 IC50
[15] = Morrison equation estimates, read-out: Kapp/i from the inhibition profiles with CaCYP51
[16] = 3 μM native Δ60HsCYP51, mean ± SD (12 c n=6), read-out: K d Δ60HsCYP51 (Hs)

Compound	MIC ([1]; 80 % reduction in turbidity)	MIC ([1]; value in brackets)	Kd [2, 12]	Sterol composition: diol (14α‐methyl ergosta‐8,24(28)‐dien‐3,6‐diol) [3]	Sterol composition: eburicol [3]	Sterol composition: ergosterol [3]	Sterol composition: lanosterol [3]	Sterol composition: total 14α‐methylated sterols [3]	MIC ([4]; 80 % reduction in turbidity)	MIC ([4]; value in brackets)	IC50 [5, 13]	melting point	Sterol composition: diol (14α‐methyl ergosta‐8,24(28)‐dien‐3,6‐diol) [6]	Sterol composition: eburicol [6]	Sterol composition: ergosterol [6]	Sterol composition: lanosterol [6]	Sterol composition: total 14α‐methylated sterols [6]	IC50 [7, 14]	Ki [7, 15]	Type of difference binding spectra with Δ60HsCYP51 [8]	further results
O=C(NCc1ccc(NS(=O)(=O)c2ccc(Cl)cc2)cc1)C(Cn1cncn1)c1ccccc1 (stereo not drawn) [Compound 12 c, N‐(4‐((4‐chlorophenyl)sulfonamido)benzyl)‐2‐phenyl‐3‐(1H‐1,2,4‐triazol‐1‐yl)propanamide]	1 µg/mL	2.02 µM	43 ± 18 nM	7.2±5.2%	14.0±3.5%	24.9±5.5%	34.5±2.9%	70.6%	1 µg/mL	2.02 µM	152000 nM	122 to 124 °C	9.2±1.2%	22.4±1.1%	3.5±1.3%	43.6±1.5%	93.3%	330 nM	110 nM	type II difference binding spectra	Kd [8, 16]: 923 ± 509 nM
C[C@@H](c1ncncc1F)[C@](O)(Cn1cncn1)c1ccc(F)cc1F [voriconazole, reference compound]																					IC50 [5]: 78000 nM
CC[C@@H]([C@H](C)O)n1ncn(-c2ccc(N3CCN(c4ccc(OC[C@@H]5CO[C@@](Cn6cncn6)(c6ccc(F)cc6F)C5)cc4)CC3)cc2)c1=O [posaconazole, reference compound]			43 ± 11 nM																		IC50 [5]: 123000 nM; Kd [8]: 204 ± 63 nM
CC(=O)N1CCN(c2ccc(OCC3COC(Cn4ccnc4)(c4ccc(Cl)cc4Cl)O3)cc2)CC1 (stereo not drawn) [ketoconazole]																					IC50 [9]: 4500 nM; IC50 [10]: 500 nM
O=C(NCc1ccc(Cl)cc1)C(Cn1ccnc1)c1ccc(Cl)cc1 (stereo not drawn) [Compound 5 d, N‐(4‐Chlorobenzyl)‐2‐(4‐chlorophenyl)‐3(1H‐imidazol‐1‐yl)propanamide]	0.125 µg/mL	0.33 µM	17 ± 5 nM	17.6±7.1%	20.5±4.4%	2.7±2.3%	41.0±5.5%	95.8%	0.125 µg/mL	0.33 µM	3370 nM	160 to 162 °C	8.2±6.0%	26.4±5.0%	7.8±6.5%	40.4±2.2%	90.0%	390 nM	160 nM	type II difference binding spectra	Kd [8, 16]: 45 ± 13 nM
OC(Cn1cncn1)(Cn1cncn1)c1ccc(F)cc1F [fluconazole, reference compound]	0.125 µg/mL	0.41 µM							0.125 µg/mL	0.41 µM										type II difference binding spectra	Kd [2]: 41 ± 13 nM; IC50 [7]: 310 nM; Ki [7]: 30 nM
O[C@@](Cn1cnnn1)(c1ccc(F)cc1F)C(F)(F)c1ccc(-c2ccc(OCC(F)(F)F)cc2)cn1 [oteseconazole]																					Inhibition of Δ60HsCYP51 activity ([9]; at concentrations up to 50 μM ref 31): did not inhibit
CCC(C)n1ncn(-c2ccc(N3CCN(c4ccc(OCC5COC(Cn6cncn6)(c6ccc(Cl)cc6Cl)O5)cc4)CC3)cc2)c1=O (stereo not drawn) [itraconazole]																					IC50 [9]: 70000 nM; Kd [11]: 92 nM; IC50 [10]: 400 nM
O=C(NCc1ccc(Cl)cc1Cl)C(Cn1ccnc1)c1ccc(Cl)cc1 (stereo not drawn) [Compound 5 f, 2‐(4‐Chlorophenyl)‐N‐(2,4‐dichlorobenzyl)‐3‐(1H‐imidazol‐1‐yl)propanamide]	< 0.03 µg/mL	< 0.07 µM	62 ± 17 nM	11.7±1.4%	21.0±3.3%	9.1±5.5%	38.6±3.6%	89.3%	< 0.03 µg/mL	< 0.07 µM	3730 nM	148 to 150 °C	7.5±4.6%	26.1±0.1%	4.3±0.5%	43.6±1.8%	77.2%	460 nM	200 nM	type II difference binding spectra	Kd [8, 16]: 74 ± 13 nM
